Patent US4623649A, “Substituted β-carbolines, and use thereof as medicinal agents” (Schering Aktiengesellschaft, priority 1983, dated 1986)

Target: benzodiazepine receptors
Experiment: not given
Details: footnote * Nature 294(1981)472; cited from earlier work

| Molecule | IC50, displacement of specific binding of 3H flunitrazepam (in vitro), entry footnoted Nature 294(1981)472 |
| --- | --- |
| COC(=O)c1cc2c(cn1)[nH]c1ccccc12 [CO2 Me, H, H, H] | 1.9 ng/mL |

Target: benzodiazepine receptors
Experiment: in vitro displacement of 3H flunitrazepam (or 3H diazepam) from benzodiazepine receptors, rat cerebrum suspension
Type: binding
Details: rat cerebral membrane suspension, 3H flunitrazepam 1.0 nM, 0° C., pH 7.1

| Molecule | IC50, displacement of specific binding of 3H flunitrazepam (in vitro) |
| --- | --- |
| CCOC(=O)c1ncc2[nH]c3ccc(C4CCCCC4)cc3c2c1C | 12 ng/mL |
| CCOC(=O)c1ncc2[nH]c3ccc(C4=CCCCCCC4)cc3c2c1C | 19 ng/mL |
| CCOC(=O)c1cc2c(cn1)[nH]c1ccc(C(C)C)cc12 | 0.9 ng/mL |
| CCOC(=O)c1ncc2[nH]c3ccc(C4CCCC(=O)C4)cc3c2c1C (stereo not drawn) | 0.6 ng/mL |
| 4-methoxymethyl-6-(1- and 2-cyclohexen-4-yl)-β-carboline-3-carboxylic acid ethyl ester | 0.7 ng/mL |
| 6-(1- and 2-cyclohexen-4-yl)-4-methoxymethyl-3-(3-ethyl-1,2,4-oxadiazol-5-yl)-β-carboline | 1.5 ng/mL |
| CCOC(=O)c1ncc2[nH]c3cccc(Cc4ccccc4)c3c2c1COC [CO2 Et, CH2 OCH3, CH2C6 H5, H, 5-benzyl-4-methoxymethyl-β-carboline-3-carboxylic acid ethyl ester] | 0.5 ng/mL |
| CCOC(=O)c1ncc2[nH]c3ccc(C(C)(C)C)cc3c2c1C [CO2 Et, Me, H, C(CH3)3, 6-tert-butyl-4-methyl-β-carboline-3-carboxylic acid ethyl ester] | 7.5 ng/mL |
| CCOC(=O)c1ncc2[nH]c3ccc(CCc4ccccc4)cc3c2c1C [CO2 Et, Me, H, CH2CH2C6 H5, 6-phenethyl-4-methyl-β-carboline-3-carboxylic acid ethyl ester] | 14 ng/mL |

Tested on: benzodiazepine receptor
Experiment: in vivo reduction of specific binding of 3H flunitrazepam to the benzodiazepine receptor in living brain, mice
Design: unit not given beside the values
Details: normally subcutaneous, 3H flunitrazepam i.v. after 15 minutes, sacrificed after another 20 minutes

| Molecule | ED50, reduction of specific binding of flunitrazepam to 50% of control (in vivo) |
| --- | --- |
| 4-methoxymethyl-6-(1- and 2-cyclohexen-4-yl)-β-carboline-3-carboxylic acid ethyl ester | 0.5 |
| 6-(1- and 2-cyclohexen-4-yl)-4-methoxymethyl-3-(3-ethyl-1,2,4-oxadiazol-5-yl)-β-carboline | 1.9 |
